Test results from ChEMBL document CHEMBL1201862, “PubChem BioAssay data set” (2004).
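Five concentrations, 48 hours, 96-well plates. At the GI50, growth is halved.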 Calls of active or inactive are those of the source. Rule as the data show it: active = GI50 up to about 1.1 µM and inactive = higher.

Assays:
Assay in all cases: inhibition of tumour cell growth, NCI panel, 48 h
SF-268 = system: SF-268
NCI-H226 = system: NCI-H226
IGROV-1 = system: IGROV-1
A498 = system: A498
SK-MEL-5 = system: SK-MEL-5
SNB-19 = system: SNB-19
MOLT-4 = system: MOLT-4
OVCAR-8 = system: OVCAR-8
U-251 = system: U-251
OVCAR-5 = system: OVCAR-5
KM12 = system: KM12
SNB-75 = system: SNB-75
SN12C = system: SN12C
NCI-H23 = system: NCI-H23

Measured: GI50

Cc1cc(N(CCC#N)S(=O)(=O)c2ccccc2)ccc1/C=C1N=C(/C=C/c2ccccc2)OC\1=O
inactive: SF-268 > 100 µM | NCI-H226 > 100 µM | IGROV-1 > 100 µM | A498 > 100 µM | SK-MEL-5 77.6 µM | SNB-19 > 100 µM | MOLT-4 98.2 µM | OVCAR-8 > 100 µM | U-251 > 100 µM | OVCAR-5 > 100 µM | KM12 > 100 µM | SNB-75 > 100 µM | SN12C > 100 µM | NCI-H23 > 100 µM

CCCCCCCCCCCCCC(=O)OCC1OC(=O)CC1O (centres undefined)
inactive: SF-268 > 100 µM | IGROV-1 88.5 µM | A498 > 100 µM | SK-MEL-5 > 100 µM | SNB-19 > 100 µM | MOLT-4 35.2 µM | OVCAR-8 > 100 µM | U-251 > 100 µM | OVCAR-5 > 100 µM | KM12 81.5 µM | SNB-75 > 100 µM | SN12C > 100 µM | NCI-H23 > 100 µM

C=CCCCCCCCCC(=O)NS(=O)(=O)c1ccccc1
inactive: SF-268 > 100 µM | NCI-H226 > 100 µM | IGROV-1 > 100 µM | A498 > 100 µM | SNB-19 > 100 µM | MOLT-4 48.6 µM | OVCAR-8 > 100 µM | U-251 77.4 µM | OVCAR-5 > 100 µM | KM12 73.6 µM | SNB-75 92.5 µM | SN12C > 100 µM | NCI-H23 > 100 µM

COc1ccc(C=O)c([N+](=O)[O-])c1
inactive: SF-268 > 100 µM | NCI-H226 44 µM | IGROV-1 98.6 µM | A498 > 100 µM | SK-MEL-5 17 µM | SNB-19 64.6 µM | MOLT-4 4.31 µM | OVCAR-8 31.6 µM | U-251 13.2 µM | KM12 22.8 µM | SNB-75 52.1 µM | SN12C 41.7 µM | NCI-H23 > 100 µM

CC(C)c1ccccc1NC(=O)/C(Cl)=C1/Sc2ccccc2NC1=O
inactive: SF-268 34 µM | NCI-H226 26.9 µM | IGROV-1 27 µM | A498 32.6 µM | SK-MEL-5 20.6 µM | SNB-19 38.5 µM | MOLT-4 24.8 µM | OVCAR-8 43.4 µM | U-251 35 µM | OVCAR-5 43.3 µM | SNB-75 22.7 µM | SN12C 34 µM | NCI-H23 19.6 µM

COc1ccc(C2Oc3c(cc(O)c(OC)c3C)[C@@H]2C)cc1OC (some centres undefined)
inactive: SF-268 > 100 µM | NCI-H226 > 100 µM | IGROV-1 > 100 µM | A498 > 100 µM | SK-MEL-5 31.6 µM | SNB-19 > 100 µM | MOLT-4 76.2 µM | OVCAR-8 > 100 µM | U-251 > 100 µM | OVCAR-5 > 100 µM | KM12 > 100 µM | SNB-75 29.7 µM | NCI-H23 > 100 µM
